From PMC8545107 (mBio, 2021) come the findings set out here.

Series [1] deals with gallocin gene promoter (PgllA) in S. gallolyticus subsp. gallolyticus UCN34 Δgsp pTCVΩPgllA-gfp (receptor BlpH). Description: Gallocin induction reporter gene assay (PgllA-gfp). It counts as cell-based, Streptococcus gallolyticus subsp. gallolyticus. The note with it: reporter strain UCN34 Δgsp pTCVΩPgllA-gfp; maximum GFP fluorescence normalized with OD600; 37°C; triplicate, three trials, sigmoidal curve fit. From the text:
We first aimed at determining the active form of GSP in S. gallolyticus subsp. gallolyticus strain UCN34. GSP is derived from a 45-residue precursor encoded by gsp and is predicted to be processed to a 24-mer peptide by cleavage of the amino-terminal leader sequence after a double glycine motif and then exported to the extracellular environment by the BlpAB transporter. However, GSP was previously isolated as a 21-mer peptide from S. gallolyticus subsp. gallolyticus TX20005 ([10]). We first confirmed by mass spectrometry analysis that GSP isolated from culture supernatants of strain UCN34 was strictly identical to the 21-mer peptide previously purified from strain TX20005 (Fig. S1). […] Therefore, we chemically synthesized GSP 21-mer and GSP 24-mer peptides to test their efficiency in activating gallocin gene transcription. To do so, we used a reporter S. gallolyticus subsp. gallolyticus strain, UCN34, in which the endogenous gsp gene has been deleted and which contains a plasmid expressing gfp under the control of the gallocin gene promoter (PgllA) ([33]).
Fluorescence and absorbance measurements were recorded using a Biotek Synergy H1 microplate reader using Gen5 data analysis software (v. 3.03). Biological assays were performed in triplicate per trial. EC50s from three trials were calculated using GraphPad Prism software (v. 7.0) using a sigmoidal curve fit.
Stock solutions of peptides (1 mM) were prepared in dimethyl sulfoxide (DMSO) and stored at 4°C in sealed glass vials. […] Black polystyrene 96-well microtiter plates (Costar) were used for the GFP cell-based reporter assays.
Peptide stock solutions were serially diluted with DMSO in either 1:2, 1:3, or 1:5 dilutions, and 2 μl of the diluted solution was added to each of the wells in a black 96-well microtiter plate. Each concentration was tested in triplicate, with DMSO only used as a negative control. Screening of peptide analogs was conducted using the S. gallolyticus subsp. gallolyticus UCN34 Δgsp pTCVΩPgllA-gfp strain. An overnight culture was used to make a fresh 2-ml culture without EM using a 1:10 dilution on the day of the experiment and incubated in a CO2 incubator (37°C with 5% CO2) for 3 to 4 h to reach mid-log to late log phase of growth (OD600 = 0.6 to 0.9). A final 1:10 dilution was made on a larger scale (20 ml) without EM and used for the assay, where 198 μl diluted bacterial culture was added to each well of the microtiter plate containing peptides. Plates were incubated at 37°C with shaking at 200 rpm. Fluorescence (excitation, 485 nm; emission, 516 nm) and optical density at 600 nm (OD600) readings were recorded for each well using a plate reader. Measurements were taken 1 h after inoculation and were recorded every 20 to 30 min for up to 3 h to capture the maximum fluorescence signal. The maximum fluorescence signal was normalized with the OD600 value and used to construct dose curves to determine the EC50.
A general note: In a reporter assay the amount or activity of a reporter protein is the signal.

Series [2] is described as follows: washed UCN34 Δgsp cells in sterile saline solution (0.9% [wt/vol] NaCl). The note with it: S. gallolyticus subsp. gallolyticus UCN34 Δgsp, 37°C, up to 30 min.
The nature of series [3]: S. mutans ΔcomC washed cells in saline solution. The note with it: S. mutans SMCC3 (ΔcomC), 37°C, up to 30 min.
Series [4] in a line: washed UCN34 ΔsepM cells in sterile saline solution (0.9% [wt/vol] NaCl). Particulars: S. gallolyticus subsp. gallolyticus UCN34 ΔsepM, 37°C, up to 30 min.

No end group written: not given here.

By EC50 is commonly meant the concentration that produces a half-maximal response. In the case of DFLIVGPFDWLKKNHKPT [GSP-des-K19-A21], the concentration giving a half-maximal response (EC50) in series [1] is more than 1000 nM.

For the sequence DFLIVGPFDWLKKNHKPTK [GSP-des-H20-A21], the EC50 in series [1] is more than 1000 nM.

Take DFLIVGPFDWLKKNHKPTKH [GSP-des-A21]: the EC50 in series [1] is more than 1000 nM.

Turning to DFLIVGPFDWLKKNHKPTKHA, the cleaved bond entry in series [2] is recorded as “L3-I4, 30 min”; in series [3] it was “L3-I4, 30 min”.

Take DFLIVGPFDWLKKNHKPTAHA [GSP K19A]: in series [1], the EC50 came to 106 nM.

On to LKKNHKPTKHA [GSP-des-D1-W10], for which the half-maximal effective concentration (EC50) in series [1] was more than 1000 nM.

Turning to KNKDFLIVGPFDWLKKNHKPTKHA, the cleaved bond result in series [2] was “L3-I4, 30 min”; in series [4], “L3-I4, 30 min”. Further, the not cleaved entry in series [2] and in series [4] was “Degradation of KNK-GSP to GSP was not observed (30 min)” each time.

Turning to DFLIVGPFDALKKNHKPTKHA [GSP W10A], in series [1], the EC50 is more than 1000 nM.
